Data from patent publication US20240415807A1, “AGENT FOR PREVENTING OR AMELIORATING PRURITUS” (KAO CORPORATION, priority 2021, published 2024).

Legend:
[1] = test system: AD model mice (NC/Nga, mite allergen-induced); assay: Amelioration of pruritus in AD model mice (scratching behavior, MicroAct); assay type: in vivo, mouse; conditions: 200 μL subcutaneous, 0.5 mg/mL Compound 1 or 0.05 mg/mL Compound 2, three times a week; measured 3 hours; vs solvent alone; FIG. 7
Description: Seven-week-old female NC/Nga mice were used. Preparation of AD model mice: The back of the neck was shaved, and 100 mg of an ointment containing mite allergen: Biostir AD (Biostir Inc.) was applied to the back of the neck and auricular region under isoflurane anesthesia for initial sensitization. Four days after the first application of the ointment containing mite allergen, 150 μL of 4% (w/v) SDS solution and 100 mg of ointment containing mite allergen were applied to the back of the neck and auricular region under isoflurane anesthesia. Thereafter, the same procedure was performed four times at a frequency of once every 3 to 4 days to induce AD-like dermatitis.
Compound 1 or Compound 2, whose C3a receptor antagonism was confirmed in Example 4 above, was used as a C3a receptor antagonist. Compound 1 or Compound 2 was dissolved in saline containing 20% polyethylene glycol 400, of which 200 μL was administered subcutaneously to the back of the neck. The control group was administered with the same amount of only the above solvent. The concentration of the C3a receptor antagonist solution was set at 0.5 mg/mL for Compound 1 and 0.05 mg/mL for Compound 2. […]
Four days after the last application of the ointment containing mite allergen, the scratching behavior was measured for 3 hours after the last administration of the sample. […]

C3a receptor = target: T1, C3a receptor (Homo sapiens, UniProt Q16581); assay: Ca2+-flux assay of C3a receptor antagonism in transfected HEK293 cells; assay type: cell-based; conditions: antagonist 10 nM, mouse TLQP-21 1 μM, 15 minutes preincubation, HEK293 with C3a receptor and GNA16 vectors, vs control; FIG. 6
T1 sequence (Q16581 1-482): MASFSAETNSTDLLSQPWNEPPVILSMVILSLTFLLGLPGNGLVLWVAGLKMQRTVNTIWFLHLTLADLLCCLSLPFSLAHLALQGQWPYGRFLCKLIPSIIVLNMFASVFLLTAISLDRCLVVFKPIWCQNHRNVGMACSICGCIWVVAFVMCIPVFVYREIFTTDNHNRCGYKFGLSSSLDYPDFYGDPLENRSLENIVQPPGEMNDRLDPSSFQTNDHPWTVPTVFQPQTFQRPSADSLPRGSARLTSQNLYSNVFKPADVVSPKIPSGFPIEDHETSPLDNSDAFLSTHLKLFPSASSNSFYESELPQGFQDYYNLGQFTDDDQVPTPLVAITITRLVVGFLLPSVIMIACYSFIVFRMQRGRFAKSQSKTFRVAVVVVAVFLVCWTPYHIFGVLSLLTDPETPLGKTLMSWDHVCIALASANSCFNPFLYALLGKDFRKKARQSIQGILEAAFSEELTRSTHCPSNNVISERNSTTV
Description: In the following evaluation, Compound 1 and Compound 2 were dissolved in DMSO and diluted with HBSS as appropriate.
Human Embryonic Kidney cells 293 (HEK293) were used, transfected with the expression vectors necessary for evaluation according to the following.
A transfection solution was prepared by sequentially adding C3a receptor expression vector, GNA16 expression vector, and PEI-MAX (PolyScience) solution to serum-free DMEM medium, mixing well, and then allowing it to stand at room temperature for 20 minutes. […]
The cells for evaluating C3a receptor response described above were seeded in a 96-well Black Polystyrene Microplate (Thermo fisher scientific) precoated with Poly-L-Ornithine Solution (FUJIFILM Wako Pure Chemical). […] After 15 minutes, a mouse TLQP-21 solution was added for C3a receptor stimulation, and the Ca^2+ influx associated with the stimulation was measured over time as intracellular fluorescence intensity (Ex: 494 nm, Em: 525 nm). The value obtained by subtracting the measured value when HBSS was added instead of mouse TLQP-21 solution (blank) was used as the measured value. The C3a receptor antagonist solution and mouse TLQP-21 solution were added after adjusting their concentrations by appropriately diluting them so that their final concentrations when measuring fluorescence intensity were 10 nM and 1 μM, respectively. […]

[2] = test system: AEW model mice (C57BL/6J); assay: Amelioration of pruritus in AEW model mice (scratching behavior, MicroAct); assay type: in vivo, mouse; conditions: 200 μL subcutaneous, 0.5 mg/mL Compound 1 or 0.05 mg/mL Compound 2, once daily for 8 days; measured 3 hours; vs solvent alone; FIG. 8
Source text: The animals used were male C57BL/6J mice.
Preparation of AEW model: The back of the neck was shaved, and absorbent cotton soaked with a 1:1 (v/v) mixture of acetone and diethyl ether was applied and allowed to stand for 15 seconds. Immediately thereafter, absorbent cotton soaked with water was applied for 30 seconds. This treatment was repeated twice/day (morning and evening) for 7 days.
Compound 1 or Compound 2, whose C3a receptor antagonism was confirmed in Example 4 above, was used as a C3a receptor antagonist. Compound 1 or Compound 2 was dissolved in saline containing 20% polyethylene glycol 400, of which 200 μL was administered subcutaneously to the back of the neck. The control group was administered with the same amount of only the above solvent. The concentration of the C3a receptor antagonist solution was set at 0.5 mg/mL for Compound 1 and 0.05 mg/mL for Compound 2. Sample administration started after the first AEW treatment and was performed at a frequency of once daily for 8 days.
Sixteen hours after the last AEW treatment, the scratching behavior was measured for 3 hours after the last administration of the sample. MicroAct (Neuroscience) was used to measure the scratching behavior.

| Structure (SMILES) | Scratching behavior in AD model mice [1] | Fluorescence intensity due to C3a receptor stimulation by TLQP-21 (integrated over 3 min) (C3a receptor) | Scratching behavior in AEW model mice [2] |
| --- | --- | --- | --- |
| N=C(N)NCCC[C@H](NC(=O)c1ccc(C(c2ccccc2)c2ccccc2)s1)C(=O)O [Compound 1, L-arginine, N2-[[5-(diphenylmethyl)-2-thienyl]carbonyl]] | significant decrease in scratching behavior | greatly suppressed | significant decrease in scratching behavior |
| Cc1cc(C(c2ccc(Cl)cc2)c2ccc(Cl)cc2)sc1C(=O)N[C@@H](CCCNC(=N)N)C(=O)O [Compound 2, L-arginine, N2-[[5-[bis(4-chlorophenyl)methyl]-3-methyl-2-thienyl]carbonyl]] | significant decrease in scratching behavior | greatly suppressed | significant decrease in scratching behavior |
